Assay results from patent US5840684A, “Glycopeptide antibiotic derivatives” (Eli Lilly and Company, priority 1995, dated 1998).
In brackets after ≈: the same amount, converted by molar mass.

Assays:
[1] = system: Enterococcus gallinarum 245; test: broth micro-dilution MIC; assay type: cell-based; conditions: Enterococcus gallinarum 245
Method: (§1) The formula I compounds have in vitro and in vivo activity against Gram-positive pathogenic bacteria. The MIC's were determined using a standard broth micro-dilution assay.

[2] = system: Streptococcus pneumoniae P1; test: broth micro-dilution MIC; assay type: cell-based
Method: as §1

[3] = system: Entercoccus faecium 180; test: broth micro-dilution MIC; assay type: cell-based; conditions: Entercoccus faecium 180
Method: as §1

[4] = system: Entercoccus faecium 180-1; test: broth micro-dilution MIC; assay type: cell-based
Method: (§2) The MIC's were determined using a standard broth micro-dilution assay.

[5] = system: Entercoccus faecium 276; test: broth micro-dilution MIC; assay type: cell-based
Method: as §2

[6] = system: Staphylococcus aureus SA1199A; test: broth micro-dilution MIC; assay type: cell-based
Method: as §2

[7] = system: Staphylococcus aureus SA1199; test: broth micro-dilution MIC; assay type: cell-based
Method: as §2

[8] = system: Streptococcus pyogenes C203; test: broth micro-dilution MIC; assay type: cell-based
Method: as §2

[9] = system: vancomycin-susceptible enterococci; test: broth micro-dilution, mean geometric MIC; assay type: cell-based, Enterococcus faecium and Enterococcus faecalis; conditions: enterococci, 24-hour incubation
[10] = system: Staphylococcus aureus S13E; assay type: cell-based
Method: as §2

[11] = system: Staphylococcus aureus SA1199B; assay type: cell-based
Method: as §2

[12] = system: Entercoccus faecium 2041; test: broth micro-dilution MIC; assay type: cell-based; conditions: Entercoccus faecium 2041
Method: as §1

[13] = system: Staphylococcus aureus 446; test: broth micro-dilution MIC; assay type: cell-based
Method: as §2

[14] = system: vancomycin-resistant enterococci; test: broth micro-dilution, mean geometric MIC; assay type: cell-based, Enterococcus faecium and Enterococcus faecalis; conditions: enterococci, 24-hour incubation
[15] = system: Staphylococcus epidermidis 270; test: broth micro-dilution MIC; assay type: cell-based
Method: as §1

[16] = system: Staphylococcus haemolyticus 105; test: broth micro-dilution MIC; assay type: cell-based
Method: as §1

[17] = system: Staphylococcus haemolyticus 415; test: broth micro-dilution MIC; assay type: cell-based
Method: as §1

[18] = system: Staphylococcus aureus X778; test: broth micro-dilution MIC; assay type: cell-based
Method: as §2

[19] = system: Staphylococcus aureus X400; test: broth micro-dilution MIC; assay type: cell-based
Method: as §2

[20] = system: Staphylococcus aureus 447; test: broth micro-dilution MIC; assay type: cell-based
Method: as §2

Row | Structure (SMILES) | MIC [1] [µg/mL] | MIC [2] [µg/mL] | MIC [3] [µg/mL] | MIC [4] [µg/mL] | MIC [5] [µg/mL] | MIC [6] [µg/mL] | MIC [7] [µg/mL] | MIC [8] [µg/mL] | mean geometric MIC, Vancomycin Sensitive Strains [9] [µg/mL] | MIC [10] [µg/mL] | MIC [11] [µg/mL] | MIC [12] [µg/mL] | MIC [13] [µg/mL] | mean geometric MIC, Vancomycin Resistant Strains [14] [µg/mL] | MIC [15] [µg/mL] | MIC [16] [µg/mL] | MIC [17] [µg/mL] | MIC [18] [µg/mL] | MIC [19] [µg/mL] | MIC [20] [µg/mL]
1 | CCCCCCCCCCCCOc1ccc(CNC2(C)CC(OC3C(Oc4c5cc6cc4Oc4ccc(cc4Cl)C(OC4CC(C)(N)C(O)C(C)O4)C4NC(=O)C(NC(=O)C6NC(=O)C(CC(N)=O)NC(=O)C(NC(=O)C(CC(C)C)NC)C(O)c6ccc(c(Cl)c6)O5)c5ccc(O)c(c5)-c5c(O)cc(O)cc5C(C(=O)O)NC4=O)OC(CO)C(O)C3O)OC(C)C2O)cc1 (stereo not drawn) [Compound 10] | 8 (≈ 4.29 µM) | 0.125 (≈ 0.067 µM) | 8 (≈ 4.29 µM) | 4 (≈ 2.14 µM) | 18 (≈ 9.64 µM) | 4 (≈ 2.14 µM) | 8 (≈ 4.29 µM) | ≤ 0.06 | 3.5 | 8 (≈ 4.29 µM) | 8 (≈ 4.29 µM) |  |  |  |  |  |  |  |  | 
2 | CCCCCCCCc1ccc(-c2ccc(CNC3(C)CC(OC4C(Oc5c6cc7cc5Oc5ccc(cc5Cl)C(OC5CC(C)(N)C(O)C(C)O5)C5NC(=O)C(NC(=O)C7NC(=O)C(CC(N)=O)NC(=O)C(NC(=O)C(CC(C)C)NC)C(O)c7ccc(c(Cl)c7)O6)c6ccc(O)c(c6)-c6c(O)cc(O)cc6C(C(=O)O)NC5=O)OC(CO)C(O)C4O)OC(C)C3O)cc2)cc1 (stereo not drawn) [Compound 21] | 8 (≈ 4.28 µM) | 0.5 (≈ 0.267 µM) | 8 (≈ 4.28 µM) | 8 (≈ 4.28 µM) |  |  |  | 2 (≈ 1.07 µM) | 4.3 |  |  |  |  |  |  |  |  |  |  | 
3 | CCCCCCCCOc1ccc(-c2ccc(CNC3(C)CC(OC4C(Oc5c6cc7cc5Oc5ccc(cc5Cl)C(OC5CC(C)(N)C(O)C(C)O5)C5NC(=O)C(NC(=O)C7NC(=O)C(CC(N)=O)NC(=O)C(NC(=O)C(CC(C)C)NC)C(O)c7ccc(c(Cl)c7)O6)c6ccc(O)c(c6)-c6c(O)cc(O)cc6C(C(=O)O)NC5=O)OC(CO)C(O)C4O)OC(C)C3O)cc2)cc1 (stereo not drawn) [Compound 23] | 8 (≈ 4.24 µM) | 0.5 (≈ 0.265 µM) |  | 32 (≈ 17 µM) | 32 (≈ 17 µM) |  |  | 1 (≈ 0.53 µM) | 2.0 |  |  | 32 (≈ 17 µM) | 38 (≈ 20.1 µM) | 5.7 |  |  |  |  |  | 
4 | CNC(CC(C)C)C(=O)NC1C(=O)NC(CC(N)=O)C(=O)NC2C(=O)NC3C(=O)NC(C(=O)NC(C(=O)O)c4cc(O)cc(O)c4-c4cc3ccc4O)C(OC3CC(C)(N)C(O)C(C)O3)c3ccc(c(Cl)c3)Oc3cc2cc(c3OC2OC(CO)C(O)C(O)C2OC2CC(C)(NCCc3ccc(Cc4ccccc4)cc3)C(O)C(C)O2)Oc2ccc(cc2Cl)C1O (stereo not drawn) [Compound 35] | ≤ 0.06 |  | 1 (≈ 0.56 µM) | ≤ 0.06 | ≤ 0.06 |  |  |  |  | ≤ 0.06 |  | ≤ 0.06 | 0.5 (≈ 0.28 µM) | 5.6 | 1 (≈ 0.56 µM) | 2 (≈ 1.12 µM) | 4 (≈ 2.24 µM) |  |  | 
5 | CNC(CC(C)C)C(=O)NC1C(=O)NC(CC(N)=O)C(=O)NC2C(=O)NC3C(=O)NC(C(=O)NC(C(=O)O)c4cc(O)cc(O)c4-c4cc3ccc4O)C(OC3CC(C)(N)C(O)C(C)O3)c3ccc(c(Cl)c3)Oc3cc2cc(c3OC2OC(CO)C(O)C(O)C2OC2CC(C)(NCc3ccc(C(F)(F)F)cc3)C(O)C(C)O2)Oc2ccc(cc2Cl)C1O (stereo not drawn) [Compound 37] |  | ≤ 0.06 |  | ≤ 0.06 | 1 (≈ 0.571 µM) |  |  | ≤ 0.06 |  | ≤ 0.06 | ≤ 0.06 |  | 0.5 (≈ 0.286 µM) | 2.4 |  |  | 1 (≈ 0.571 µM) |  |  | 
6 | CNC(CC(C)C)C(=O)NC1C(=O)NC(CC(N)=O)C(=O)NC2C(=O)NC3C(=O)NC(C(=O)NC(C(=O)O)c4cc(O)cc(O)c4-c4cc3ccc4O)C(OC3CC(C)(N)C(O)C(C)O3)c3ccc(c(Cl)c3)Oc3cc2cc(c3OC2OC(CO)C(O)C(O)C2OC2CC(C)(NCCc3cccc(Oc4ccccc4)c3)C(O)C(C)O2)Oc2ccc(cc2Cl)C1O (stereo not drawn) [Compound 62] | 4 (≈ 2.24 µM) | ≤ 0.06 | 4 (≈ 2.24 µM) | ≤ 0.06 | 0.5 (≈ 0.28 µM) | ≤ 0.06 |  | ≤ 0.06 | 0.22 | 0.5 (≈ 0.28 µM) | 1 (≈ 0.559 µM) | ≤ 0.06 | 2 (≈ 1.12 µM) | 9.5 | 1 (≈ 0.559 µM) | 2 (≈ 1.12 µM) |  | 0.5 (≈ 0.28 µM) | ≤ 0.06 | 0.5 (≈ 0.28 µM)
7 | CNC(CC(C)C)C(=O)NC1C(=O)NC(CC(N)=O)C(=O)NC2C(=O)NC3C(=O)NC(C(=O)NC(C(=O)O)c4cc(O)cc(O)c4-c4cc3ccc4O)C(OC3CC(C)(N)C(O)C(C)O3)c3ccc(c(Cl)c3)Oc3cc2cc(c3OC2OC(CO)C(O)C(O)C2OC2CC(C)(NCc3ccc4cc(OC)ccc4c3)C(O)C(C)O2)Oc2ccc(cc2Cl)C1O (stereo not drawn) [Compound 65] | 4 (≈ 2.27 µM) | ≤ 0.06 | 0.5 (≈ 0.284 µM) | ≤ 0.06 | 0.5 (≈ 0.284 µM) | ≤ 0.06 | 0.5 (≈ 0.284 µM) |  | 0.20 | 0.5 (≈ 0.284 µM) | 2 (≈ 1.13 µM) | ≤ 0.06 | 2 (≈ 1.13 µM) | 2.4 | 1 (≈ 0.567 µM) |  | 4 (≈ 2.27 µM) | 0.5 (≈ 0.284 µM) |  | 1 (≈ 0.567 µM)
8 | CNC(CC(C)C)C(=O)NC1C(=O)NC(CC(N)=O)C(=O)NC2C(=O)NC3C(=O)NC(C(=O)NC(C(=O)O)c4cc(O)cc(O)c4-c4cc3ccc4O)C(OC3CC(C)(N)C(O)C(C)O3)c3ccc(c(Cl)c3)Oc3cc2cc(c3OC2OC(CO)C(O)C(O)C2OC2CC(C)(NCc3cc(-c4ccccc4)ccc3O)C(O)C(C)O2)Oc2ccc(cc2Cl)C1O (stereo not drawn) [Compound 85] | 2 (≈ 1.13 µM) | ≤ 0.06 | ≤ 0.06 | ≤ 0.06 |  | ≤ 0.06 | 0.5 (≈ 0.282 µM) | ≤ 0.06 | 0.11 | 0.5 (≈ 0.282 µM) | 1 (≈ 0.563 µM) | ≤ 0.06 |  | 3.4 | 0.5 (≈ 0.282 µM) | 1 (≈ 0.563 µM) | 2 (≈ 1.13 µM) |  |  | 
9 | CCOC(c1ccccc1)c1ccc(CNC2(C)CC(OC3C(Oc4c5cc6cc4Oc4ccc(cc4Cl)C(OC4CC(C)(N)C(O)C(C)O4)C4NC(=O)C(NC(=O)C6NC(=O)C(CC(N)=O)NC(=O)C(NC(=O)C(CC(C)C)NC)C(O)c6ccc(c(Cl)c6)O5)c5ccc(O)c(c5)-c5c(O)cc(O)cc5C(C(=O)O)NC4=O)OC(CO)C(O)C3O)OC(C)C2O)cc1 (stereo not drawn) [Compound 126] | 2 (≈ 1.1 µM) | ≤ 0.06 | 1 (≈ 0.55 µM) | ≤ 0.06 | 1 (≈ 0.55 µM) |  |  | ≤ 0.06 | 0.11 | 0.5 (≈ 0.275 µM) | 1 (≈ 0.55 µM) | ≤ 0.06 | 2 (≈ 1.1 µM) | 2.4 | 1 (≈ 0.55 µM) | 0.5 (≈ 0.275 µM) | 2 (≈ 1.1 µM) | 0.5 (≈ 0.275 µM) | 1 (≈ 0.55 µM) | 1 (≈ 0.55 µM)
10 | CNC(CC(C)C)C(=O)NC1C(=O)NC(CC(N)=O)C(=O)NC2C(=O)NC3C(=O)NC(C(=O)NC(C(=O)O)c4cc(O)cc(O)c4-c4cc3ccc4O)C(OC3CC(C)(N)C(O)C(C)O3)c3ccc(c(Cl)c3)Oc3cc2cc(c3OC2OC(CO)C(O)C(O)C2OC2CC(C)(NCc3ccc(N4CCCCC4C)cc3)C(O)C(C)O2)Oc2ccc(cc2Cl)C1O (stereo not drawn) [Compound 135] | 2 (≈ 1.12 µM) | ≤ 0.06 | 1 (≈ 0.562 µM) | ≤ 0.06 | 0.5 (≈ 0.281 µM) | ≤ 0.06 | 1 (≈ 0.562 µM) | ≤ 0.06 | 0.22 | 1 (≈ 0.562 µM) |  |  | 1 (≈ 0.562 µM) | 4.8 | 0.5 (≈ 0.281 µM) | 0.5 (≈ 0.281 µM) | 2 (≈ 1.12 µM) | 1 (≈ 0.562 µM) | ≤ 0.06 | 1 (≈ 0.562 µM)
